How the values were obtained:
[1] = test system: JEG-3 (human placental choriocarcinoma cell line); assay: Real-time RT-PCR quantification of gene expression in drug-treated JEG-3; format: cell-based; conditions: for Real time PCR (Relative ratio), KIAA0310: GenBank AB002308; for Real time PCR (Relative ratio), ATP10B: GenBank AB018258; for Real time PCR (Relative ratio), TTF2: GenBank AB209845; for Real time PCR (Relative ratio), TncRNA: GenBank AF001893; for Real time PCR (Relative ratio), C4orf19: GenBank AK001879; for Real time PCR (Relative ratio), CYP19A1: GenBank AK023571; for Real time PCR (Relative ratio), SLC40A1: GenBank AK023574; for Real time PCR (Relative ratio), ABTB2: GenBank AK095632; for Real time PCR (Relative ratio), TUBB3: GenBank AK122757; for Real time PCR (Relative ratio), MGC27016: GenBank AK125877; for Real time PCR (Relative ratio), GLCCI1: GenBank AK126731; for Real time PCR (Relative ratio), TFCP2L4: GenBank BC036890; for Real time PCR (Relative ratio), RGS2: GenBank BC042755; for Real time PCR (Relative ratio), SIAT7A: GenBank BC063830; for Real time PCR (Relative ratio), B7-H4: GenBank BX648021; for Real time PCR (Relative ratio), COBLL1: GenBank BX649112; for Real time PCR (Relative ratio), CGA: GenBank NM_000735; for Real time PCR (Relative ratio), PARP1: GenBank NM_001618; for Real time PCR (Relative ratio), SERPINB9: GenBank NM_004155; for Real time PCR (Relative ratio), ST8SIA4: GenBank NM_005668; for Real time PCR (Relative ratio), ABL1: GenBank NM_007313; for Real time PCR (Relative ratio), GRLF1: GenBank NM_024342; for Real time PCR (Relative ratio), LGP1: GenBank NM_032484; for Real time PCR (Relative ratio), NCOA3: GenBank NM_181659; for Real time PCR (Relative ratio), SR140: GenBank XM_031553; for Real time PCR (Relative ratio), SLC7A8: GenBank Y18483
Procedure: My IQ Real-Time PCR (Bio-Rad, USA) was performed to quantify the expressions of those genes.
Particularly, cDNA was synthesized using oligo dT primer and Superscript kit (Omniscipt™ kit, Qiagen, Co., USA) by reverse transcription. 0.2 μl of the cDNA, 3.8 μl of water, 0.5 μg of a sense primer, 0.5 μg of an antisense primer, and […] of SYBR Green I supermix (Bio-Rad, USA) were mixed, which was placed in a PCR tube, followed by real-time RT-PCR in My IQ real-time PCR machine as follows: Step 1: 95°, 3 minutes; Step 2 (45 cycles): Step 2-1: 95°, 10 seconds; Step 2-2: 55-65° 45 seconds; Step 3: 95°, 1 minute; Step 4: 55°, 1 minute; Step 5 (80 cycles): 55°, 10 seconds. SYBR green I (Bio-Rad, USA) staining was performed to quantify the PCR product. SYBR I staining is the staining method using double stranded DNA binding. So, the more double stranded DNA is generated during PCR, the stronger the fluorescence intensity becomes. First, target gene and endogenous control (GAPDH) primers were added to SYBR green master mix, followed by PCR. Then, primer optimization was performed to determine a proper concentration. Synthesized cDNA and each primer were mixed (Table 4), to which SYBR master mix was added, followed by PCR.

[2] = test system: JEG-3 (human placental choriocarcinoma cell line); assay: Cytotoxicity test (MTT assay) in JEG-3

Compound	Real time PCR (Relative ratio), KIAA0310 [1]	Real time PCR (Relative ratio), ATP10B [1]	Real time PCR (Relative ratio), TTF2 [1]	Real time PCR (Relative ratio), TncRNA [1]	Real time PCR (Relative ratio), C4orf19 [1]	Real time PCR (Relative ratio), CYP19A1 [1]	Real time PCR (Relative ratio), SLC40A1 [1]	Real time PCR (Relative ratio), ABTB2 [1]	Real time PCR (Relative ratio), TUBB3 [1]	Real time PCR (Relative ratio), MGC27016 [1]	Real time PCR (Relative ratio), GLCCI1 [1]	Real time PCR (Relative ratio), TFCP2L4 [1]	Real time PCR (Relative ratio), RGS2 [1]	Real time PCR (Relative ratio), SIAT7A [1]	Real time PCR (Relative ratio), B7-H4 [1]	Real time PCR (Relative ratio), COBLL1 [1]	Real time PCR (Relative ratio), CGA [1]	Real time PCR (Relative ratio), PARP1 [1]	Real time PCR (Relative ratio), SERPINB9 [1]	Real time PCR (Relative ratio), ST8SIA4 [1]	further results
CCCC(CCC)C(=O)O [VPA, valproic acid]	5.7397	2.7083	1.6637	1.8204	2.9592	2.15	1.9425	4.0469	1.9015	2.3155	1.6023	2.292	2.8779	4.5249	0.0755	12.2271	2.6497	0.7443	7.1977	3.7161	Real time PCR (Relative ratio), ABL1 [1]: 0.8681; Real time PCR (Relative ratio), GRLF1 [1]: 0.8281; Real time PCR (Relative ratio), LGP1 [1]: 0.4982; Real time PCR (Relative ratio), NCOA3 [1]: 2.1913; Real time PCR (Relative ratio), SR140 [1]: 0.3565; Real time PCR (Relative ratio), SLC7A8 [1]: 6.3157
CN(Cc1cnc2nc(N)nc(N)c2n1)c1ccc(C(=O)N[C@@H](CCC(=O)O)C(=O)O)cc1 [MTX, methotrexate]	3.9217	2.6467	1.9659	2.2297	36.2463	1.7007	6.0098	0.1356	4.7892	2.3343	2.5941	0.7146	5.6716	8.3865	0.4198	1.4978	0.0829	0.2381	1.5208	0.955	Real time PCR (Relative ratio), ABL1 [1]: 0.5159; Real time PCR (Relative ratio), GRLF1 [1]: 0.7048; Real time PCR (Relative ratio), LGP1 [1]: 0.6468; Real time PCR (Relative ratio), NCOA3 [1]: 2.4457; Real time PCR (Relative ratio), SR140 [1]: 0.1357; Real time PCR (Relative ratio), SLC7A8 [1]: 2.8779; cytotoxicity to JEG-3 ([2]; FIGS. 1, 2 and 3): confirmed to have toxicity; IC30 (concentration shows 70% survival rate) ([2]; JEG-3, 48 hours, MTT, FIG. 1): 4.570 mM
